In one series the target is CYP3A4 (Homo sapiens (Human), UniProt P08684). Put plainly: Inhibition of cytochrome P450 isozyme CYP3A4. The class given is in vitro ADME. The following applies: for IC50: recombinant enzyme. The method, then:
(§1) A total of six specific probe substrates of six isozymes of CYPs, i.e., α-Naphthoflavone (CYP1A2), Sulphaphenazole (CYP2C9), Ticlopidine (CYP2C19), Quinidine (CYP2D6), Ketoconazole (CYP3A4), and Montelukast (CYP2C8) were co-incubated with recombinant hepatic drug enzymes CYP1A2, CYP2C9, CYP2C19, CYP2D6, CYP3A4, and CYP2C8 and test compounds, respectively. Nicotinamide adenine dinucleotide phosphate (NADP+), D-glucose-6-phosphate (G6P) and glucose-6-phosphate dehydrogenase (G6DHP) were added to start the reaction. At the end of the reaction, the corresponding half maximal inhibitory concentrations (IC50) were calculated by the fluorescence detection method (Ex490 nm/Em520 nm).

The next series deals with CYP2C8 (Homo sapiens (Human), UniProt P10632). Put plainly: Inhibition of cytochrome P450 isozyme CYP2C8. Format: in vitro ADME. The following applies: for IC50: recombinant enzyme. How it is done:
as §1

Another series addresses CYP2C19 (Homo sapiens (Human), UniProt P33261). The experiment in a line: Inhibition of cytochrome P450 isozyme CYP2C19. The following applies: for IC50: recombinant enzyme. The class given is in vitro ADME. The method, then: as §1
The target of the next series is ETa (Homo sapiens (Human), UniProt P25101). Put plainly: Calcium flux assay on ETa cell line. Format: cell-based. The following applies: ETa/HEK293, calcium flux, endothelin-1 agonist. The method, then:
Test materials: a) cell line: ETa/HEK293; b) vehicles: DMEM, Invitrogen (Cat #11960); Geneticin, Invitrogen (Cat #10131); c) reagent: Fluo-4 Direct, (Invitrogen, Cat #F10471); d) instruments: 384 well Poly-D-Lysine protein coating plate, Greiner #781946; Vi-cell XR Cell Viability Analyzer, Beckman Coulter; Incubator, Thermo.
For the employed agonist endothelin factor (endothelin-1, ET-1) master plate: the agonist was diluted from 50 μM to 15 μM with the test buffer solution.
For antagonist (BQ123, Am J Physiol. 1994 April; 266 (4 Pt 2): H1327-31.) plates and the compound plates: the antagonist and the tested compounds were diluted with DMSO at a gradient ratio of 1:4 to obtain 10 concentration points. Afterwards, 900 nL of each compound solution was transferred to the master plate and 30 μL of the test buffer solution was added. • a) The cell line was removed from the incubator, and 20 μL of 2X Fluo-4 Direct™ buffer solution was added gently by a pipette to a 384-well cell culture plate. • b) The cell plate was incubated at 37° C. for 50 min in the environment of 5% CO2, and then incubated at room temperature for 10 min. • c) The cell plate was removed from the incubator and placed in FLIPR. The compound plates and the tip box were placed in FLIPR. • d) Regarding the EC80 plate: • 1) Operations were conducted on […]. • 2) 10 μL of compound solution was transferred from the EC80 master plate to the cell plate. • 3) Fluorescence signals were read. • 4) The read signals were counted, and the EC80 value of each cell line was calculated using FLIPR. • 5) For the concentration of the compound plate, a solution having a concentration 6 times that of the reference agonist EC80 was formulated. • e) Regarding the compound plate: • 1) Operations were conducted on […]. • 2) 10 μL of compound was transferred to the cell plate. • 3) Fluorescence signals were read. • 4) 10 μL of solution having a concentration 6 times that of the reference agonist EC80 was transferred to the cell plate. • 5) Fluorescence signals were read. • f) Data analysis by Prism
For orientation: A change in cytosolic calcium serves as a functional read-out for many receptors and channels.

The next series addresses CYP2D6 (Homo sapiens (Human), UniProt P10635). Put plainly: Inhibition of cytochrome P450 isozyme CYP2D6. The class given is in vitro ADME. Particulars: for IC50: recombinant enzyme. How it is done: as §1
The nature of series [1]: Pharmacokinetic test in rats. The class given is in vivo. The following applies: SD rats; for Bioavailability: PO 10 mg/kg vs IV 1 mg/kg; for in vivo exposure after oral administration (in words) / oral bioavailability versus reference compound (in words): oral gavage. The method, then: Experimental animal: SD rats, 6-8 weeks. Six animals were used for each example compound.
Drug solution formulation: all of the Experimental Example compounds were formulated into 1 mg/mL solution. The solution system was 5% DMSO+20% Solutol HS15+75%(20% HP—β-CD aqueous solution).
Grouping for administration: the first group was administered by oral gavage (PO, three SD rats, 10 mg/kg, fasted overnight before administration, and fed after 4 hours following the administration); and the second group was administered by intravenous injection in dorsum of foot (IV, three SD rats, 1 mg/kg, fed freely).
Blood sampling time and treatment method: Blood was collected via the jugular vein at the following 7 to 8 points in time: 0.083 (only in the intravenous injection group), 0.25, 0.5, 1, 2, 4, 8, and 24 hours. The blood samples were centrifuged (2000 g, 4° C., 5 min) to obtain plasma. The samples were stored at −70° C. before analysis.
Analytical instruments and conditions: LC-MS/MS-33 (Triple Quad 6500+); MS: positive, ESI; mobile phases: Mobile phase A: H2O-0.025% FA-1 mM NH4OAc, Mobile phase B: MeOH-0.025% FA-1 mM NH4OAc; flow rate: 0.60 mL/min; chromatographic column: ACQUITY UPLC-BEH C18 (2.1×50 mm, 1.7 μm); column temperature: 60° C.

Setting [2] is: fluorescence detection, read-out: IC50 CYP3A4.
Setting [3] is: fluorescence detection, read-out: IC50 CYP2C8.
Where [4] appears, read: fluorescence detection, read-out: IC50 CYP2C19.
Setting [5] is: fluorescence detection, read-out: IC50 CYP2D6.
The mark [6] stands for this setting: read-out: IC50 activity against ETa (class).

Read-outs that look alike come from different tables or passages of the source. Bounds are passed on as bounds.

Results on three molecules are retold here after patent publication US20240417395A1, “DUAL ANTAGONIST AND USE THEREOF” (NICOYA THERAPEUTICS (SHANGHAI) CO., LTD, priority 2021, published 2024).

By IC50 is commonly meant the concentration that inhibits the measured activity by half. The term AUC(0-t) denotes exposure summed from dosing to a finite time, without extrapolation to infinity. Low values mean low exposure, high ones high exposure. A word on the half-life: it is the time in which the quantity being followed falls by half. A lower half-life goes with fast loss. One may read the Cmax as the peak of the concentration-time curve. As usually defined, the Tmax is the time from dosing to the highest level.

Chain of ETa (P25101 21-427): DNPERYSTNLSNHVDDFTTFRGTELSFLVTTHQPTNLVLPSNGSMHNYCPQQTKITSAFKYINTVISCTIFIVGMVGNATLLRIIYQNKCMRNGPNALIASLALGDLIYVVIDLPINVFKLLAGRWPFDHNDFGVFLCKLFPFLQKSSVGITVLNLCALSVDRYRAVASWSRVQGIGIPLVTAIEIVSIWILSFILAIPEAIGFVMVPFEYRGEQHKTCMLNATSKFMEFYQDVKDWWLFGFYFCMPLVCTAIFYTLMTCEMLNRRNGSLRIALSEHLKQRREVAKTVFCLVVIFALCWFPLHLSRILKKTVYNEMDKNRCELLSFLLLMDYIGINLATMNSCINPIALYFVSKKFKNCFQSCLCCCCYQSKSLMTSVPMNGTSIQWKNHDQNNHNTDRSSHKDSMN
Chain of CYP2D6 (P10635 whole entry): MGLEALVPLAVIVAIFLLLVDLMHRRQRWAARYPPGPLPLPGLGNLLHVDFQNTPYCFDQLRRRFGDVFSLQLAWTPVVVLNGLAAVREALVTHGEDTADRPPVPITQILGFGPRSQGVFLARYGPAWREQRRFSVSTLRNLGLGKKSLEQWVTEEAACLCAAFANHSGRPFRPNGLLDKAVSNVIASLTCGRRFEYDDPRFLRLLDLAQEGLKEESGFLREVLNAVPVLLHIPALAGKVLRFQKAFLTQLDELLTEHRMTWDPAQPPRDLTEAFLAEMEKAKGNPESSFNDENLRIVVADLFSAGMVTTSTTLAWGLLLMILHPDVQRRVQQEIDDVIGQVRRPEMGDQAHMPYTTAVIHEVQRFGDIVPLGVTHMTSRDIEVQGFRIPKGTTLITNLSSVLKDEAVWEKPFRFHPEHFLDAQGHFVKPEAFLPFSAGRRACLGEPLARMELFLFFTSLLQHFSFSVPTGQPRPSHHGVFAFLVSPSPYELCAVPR
Chain of CYP2C19 (P33261 whole entry): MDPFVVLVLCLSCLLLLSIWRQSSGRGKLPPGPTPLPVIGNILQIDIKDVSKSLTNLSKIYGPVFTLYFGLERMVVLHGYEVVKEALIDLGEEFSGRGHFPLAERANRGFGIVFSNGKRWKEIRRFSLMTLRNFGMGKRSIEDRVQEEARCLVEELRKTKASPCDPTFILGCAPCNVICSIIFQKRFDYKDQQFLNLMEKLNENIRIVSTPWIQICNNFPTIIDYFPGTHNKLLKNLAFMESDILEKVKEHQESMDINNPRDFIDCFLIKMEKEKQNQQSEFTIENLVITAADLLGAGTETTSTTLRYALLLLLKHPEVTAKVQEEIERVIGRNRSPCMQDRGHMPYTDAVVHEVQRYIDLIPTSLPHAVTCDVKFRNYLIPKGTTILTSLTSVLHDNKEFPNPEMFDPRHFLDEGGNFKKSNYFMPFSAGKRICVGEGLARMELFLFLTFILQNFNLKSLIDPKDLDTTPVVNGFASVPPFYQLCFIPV
Chain of CYP3A4 (P08684 whole entry): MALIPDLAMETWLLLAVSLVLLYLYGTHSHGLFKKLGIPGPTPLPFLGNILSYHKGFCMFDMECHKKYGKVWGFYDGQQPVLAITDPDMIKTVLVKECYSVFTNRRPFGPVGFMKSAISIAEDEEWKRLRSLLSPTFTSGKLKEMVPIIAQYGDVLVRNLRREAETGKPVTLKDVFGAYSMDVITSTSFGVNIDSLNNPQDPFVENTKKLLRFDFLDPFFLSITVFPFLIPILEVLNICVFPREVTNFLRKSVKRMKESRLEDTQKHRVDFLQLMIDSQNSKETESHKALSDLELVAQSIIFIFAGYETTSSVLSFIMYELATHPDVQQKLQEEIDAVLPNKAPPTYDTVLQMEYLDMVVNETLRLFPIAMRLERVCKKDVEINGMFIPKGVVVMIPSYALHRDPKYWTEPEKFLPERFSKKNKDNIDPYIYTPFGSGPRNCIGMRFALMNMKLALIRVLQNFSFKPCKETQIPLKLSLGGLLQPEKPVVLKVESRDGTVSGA
Chain of CYP2C8 (P10632 whole entry): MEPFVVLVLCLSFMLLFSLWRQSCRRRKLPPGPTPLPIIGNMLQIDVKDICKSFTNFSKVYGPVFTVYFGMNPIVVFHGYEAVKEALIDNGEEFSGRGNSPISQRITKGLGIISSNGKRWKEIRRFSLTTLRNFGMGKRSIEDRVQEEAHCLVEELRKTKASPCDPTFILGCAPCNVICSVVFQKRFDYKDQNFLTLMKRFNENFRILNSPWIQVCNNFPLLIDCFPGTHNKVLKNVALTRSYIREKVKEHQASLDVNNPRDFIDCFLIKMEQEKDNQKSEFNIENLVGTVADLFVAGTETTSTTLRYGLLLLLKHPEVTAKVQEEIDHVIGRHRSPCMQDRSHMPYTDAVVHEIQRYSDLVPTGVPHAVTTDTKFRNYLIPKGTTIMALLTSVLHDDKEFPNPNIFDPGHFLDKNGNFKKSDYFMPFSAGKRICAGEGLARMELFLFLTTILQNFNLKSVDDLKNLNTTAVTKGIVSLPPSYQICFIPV

Consider `CCCCC1=NC2(CCCC2)C(=O)N1Cc1ccc(-c2ccccc2S(=O)(=O)Nc2noc(C)c2C)c(COCC)c1` [Sparsentan, reference compound], for which the “risk of inhibiting CYP3A4 activity (conclusion in words)” value (“risk of inhibiting CYP3A4 activity” below) at CYP3A4 (conclusion to Table 4) is reported as “had an inhibitory effect”. For the same molecule, the IC50 on CYP3A4 (setting [2]) is 1000 to 10000 nM; on CYP2C8 (setting [3]), 1000 to 10000 nM; on CYP2C19 (setting [4]), over 10000 nM; on ETa (read-out: IC50 against ETa) it was 80.8 nM; at CYP2D6 (setting [5]), over 10000 nM. The “risk of inhibiting CYP2C8 activity (conclusion in words)” value (from here on “risk of inhibiting CYP2C8 activity”) at CYP2C8 (conclusion to Table 4) is on record as “had an inhibitory effect”. In addition, the “risk of inhibiting CYP2C19 activity (conclusion in words)” value (shortened to “risk of inhibiting CYP2C19 activity”) at CYP2C19 (conclusion to Table 4) is listed as “no risk of inhibiting”. For the same molecule, the “risk of inhibiting CYP2D6 activity (conclusion in words)” value (“risk of inhibiting CYP2D6 activity” for short) at CYP2D6 (conclusion to Table 4) is on record as “no risk of inhibiting”. Moreover, the exposure AUC(0-t) in series [1] (rat, plasma, PO 10 mg/kg) amounted to 18600 ng·h/mL. The molecule further had a half-life in series [1] (rat, plasma, PO 10 mg/kg) of 15.4 h. Also, the Bioavailability in series [1] (rat, plasma, read-out: Bioavailability) worked out at 20.6%. Besides, the Cmax in series [1] (rat, plasma, PO 10 mg/kg, read-out: Cmax) worked out at 1800 ng/mL. Moreover, in series [1] (rat, plasma, PO 10 mg/kg, read-out: Tmax), the Tmax came out at 1.42 h.

Take `CCCCC1=N[C@@]2(CC3C[C@H]3C2)C(=O)N1Cc1ccc(-c2ccccc2S(=O)(=O)Nc2noc(C)c2Cl)c(COCC)c1` (stereo partly drawn) [Example 7]: the “risk of inhibiting CYP3A4 activity” value at CYP3A4 (conclusion to Table 4) is recorded as “no risk of inhibiting”. Moreover, the IC50 at CYP3A4 (setting [2]) was over 10000 nM. For the same molecule, the “risk of inhibiting CYP2C8 activity” value on CYP2C8 (conclusion to Table 4) is recorded as “no risk of inhibiting”. For the same molecule, the IC50 at CYP2C8 (setting [3]) is over 10000 nM. The “risk of inhibiting CYP2C19 activity” value at CYP2C19 (conclusion to Table 4) is “no risk of inhibiting”. Further, on CYP2C19 (setting [4]), the IC50 was over 10000 nM. Further, the IC50 at ETa (setting [6]) was in the range of 10 to 100 nM. On ETa (read-out: IC50 against ETa), the IC50 is 24.3 nM. Also, the “risk of inhibiting CYP2D6 activity” value at CYP2D6 (conclusion to Table 4) is listed as “no risk of inhibiting”. Also, the 50% inhibitory concentration (IC50) at CYP2D6 (setting [5]) is over 10000 nM. In series [1] (PO 10 mg/kg), the AUClast was determined as 23530 ng·h/mL, the Cmax came to 3080 ng/mL, the T1/2 was determined as 5.28 h and the time of peak concentration (Tmax) stood at 3.33 h. Besides, in series [1], the Bioavailability is listed as 43.4%, the “in vivo exposure after oral administration (in words)” value is “high in vivo exposure” and the “oral bioavailability versus reference compound (in words)” value is “higher oral bioavailability”.

Regarding `CCCCC1=N[C@@]2(CC3C[C@H]3C2)C(=O)N1Cc1ccc(-c2ccccc2S(=O)(=O)Nc2noc(C)c2C)c(COCC)c1` (stereo partly drawn) [Example 3], on CYP3A4, the “risk of inhibiting CYP3A4 activity” value is reported as “had an inhibitory effect” and the IC50 was 1000 to 10000 nM. On CYP2C8, the “risk of inhibiting CYP2C8 activity” value was “no risk of inhibiting” and the IC50 is over 10000 nM. Besides, at CYP2C19, the “risk of inhibiting CYP2C19 activity” value is listed as “no risk of inhibiting” and the IC50 was over 10000 nM. Moreover, the 50% inhibitory concentration (IC50) at ETa (setting [6]) fell in the range of 10 to 100 nM. Also, the IC50 at ETa (read-out: IC50 against ETa) was found to be 10.5 nM. On CYP2D6, the “risk of inhibiting CYP2D6 activity” value was “no risk of inhibiting” and the IC50 was over 10000 nM. Moreover, in series [1] (PO 10 mg/kg), the AUClast came to 24407 ng·h/mL, the Cmax is reported as 2993 ng/mL, the T1/2 turned out to be 7.00 h and the Tmax stood at 2.17 h. For the same molecule, in series [1], the Bioavailability is listed as 69.3%, the “in vivo exposure after oral administration (in words)” value is recorded as “high in vivo exposure” and the “oral bioavailability versus reference compound (in words)” value is “higher oral bioavailability”.
